Here are results for 17 molecules from article PMC3480348, “Structure and Activity Analysis of Inauhzin Analogs as Novel Antitumor Compounds That Induce p53 and Inhibit Cell Growth” (PLoS ONE, 2012).

Assay [1] relates to H460 cells. As to the kind of experiment: 3-day WST-8 cell growth inhibition assay, H460. Format: cell-based, human. The settings on record: for EC90: Homo sapiens, NCI-H460, calculated from EC50 and Hill slope (GraphPad web calculator), read-out: EC90, cell growth inhibition, H460 p53 wild type; for EC90 fold lower than that for INZ, H460: statement covers H460 and HCT116^+/+ together. The method, then: (§1) EC90 values were calculated from the EC50 and Hill slope by a web-based calculator: http://www.graphpad.com/quickcalcs/Ecanything1.cfm.

Assay [2] deals with H460 cells. As to the kind of experiment: 3-day WST-8 cell growth inhibition assay, H460. The assay is classed as cell-based, human. The settings on record: for EC50: Homo sapiens, NCI-H460, 72 h WST-8, average of triplicates, highest concentration 50 µM, read-out: EC50, cell growth inhibition, H460 p53 wild type. A general note: Tetrazolium dyes change colour on reduction, which living cells bring about.

For assay [3], the system named is HCT116^+/+ cells. As to the kind of experiment: 3-day WST-8 cell growth inhibition assay, HCT116^+/+. The assay is classed as cell-based, human. The conditions noted are these: for EC90 / EC50: Homo sapiens; for EC90: HCT-116, calculated from EC50 and Hill slope, read-out: EC90, cell growth inhibition, HCT116^+/+ p53 wild type; for EC50: HCT-116, 72 h WST-8, average of triplicates, highest concentration 50 µM, read-out: EC50, cell growth inhibition, HCT116^+/+ p53 wild type; for EC90 fold lower than that for INZ, HCT116^+/+: statement covers H460 and HCT116^+/+ together. The method, then: as §1

Assay [4] concerns H1299 cells. In words: 3-day WST-8 cell growth inhibition assay, H1299 (p53 null). Format: cell-based, human. The settings on record: for EC90 / EC50: Homo sapiens; for EC90: NCI-H1299, calculated from EC50 and Hill slope; for EC50: NCI-H1299, 72 h WST-8, average of triplicates, highest concentration 100 µM; for effect on p53-null H1299 cells compared with p53-containing cells: in vitro cytotoxicity; for EC50 on H1299 fold higher than on H460 cells: p53-null H1299 vs p53-containing H460. The method, then: as §1

For assay [5], the system named is HCT116^−/− cells. In words: 3-day WST-8 cell growth inhibition assay, HCT116^−/− (p53 null). The settings on record: Homo sapiens, HCT-116, calculated from EC50 and Hill slope. Format: cell-based. The procedure: as §1
Assay [6] has as its system HCT116^−/− cells. Described as above. The assay is classed as cell-based, human. The settings on record: for EC50: Homo sapiens, HCT-116, 72 h WST-8, average of triplicates, highest concentration 100 µM; for effect on p53-null HCT116^−/− cells compared with p53-containing cells: in vitro cytotoxicity.
The test system of assay [7] is p53 level in H460 and HCT116^+/+ cells. In words: p53 induction by immunoblotting (IB), statement does not separate the cell lines. Format: cell-based, human. The conditions noted are these: 18 hrs, 0.5, 2, 10 µM. An excerpt:
(A–B) Initial Inauhzin analogs were purchased and tested the activity on H460 and HCT116^+/+ by immunoblotting (IB). […]
(In general: Immunoblotting shows a protein as a band on a membrane.)

Entries after “also recorded” stand apart in the source; their conditions may differ.

With `CCC(Sc1nnc2c3ccccc3n(C(=O)c3cccnc3)c2n1)C(=O)N1c2ccccc2Sc2ccccc21` (centres unmarked) [Compound 22, 2-((5-nicotinoyl-5H-[1,2,4]triazino[5,6-b]indol-3-yl)thio)-1-(10H-phenothiazin-10-yl)butan-1-one], in assay [1], the EC90 was 20.5 µM. In addition, in assay [2], the EC50 worked out at 4.9 ± 1 µM.
For `CCC(Sc1nnc2c3ccccc3n(C(=O)c3ccccc3)c2n1)C(=O)N1c2ccccc2Sc2ccccc21` (centres unmarked) [Compound 21, 2-((5-benzoyl-5H-[1,2,4]triazino[5,6-b]indol-3-yl)thio)-1-(10H-phenothiazin-10-yl)butan-1-one], the EC90 in assay [1] is 9.6 µM; in assay [3] it was 21.9 µM; in assay [4], 82.3 µM; in assay [5], over 1000 µM. For the same molecule, the EC50 in assay [3] was 2.1 ± 1 µM; in assay [4], 12.6 ± 1.4 µM; in assay [2], 4.3 ± 0.3 µM; in assay [6], 28.2 ± 1.4 µM. In addition, in assay [4], the “effect on p53-null H1299 cells compared with p53-containing cells” value is “much less effective”. The “effect on p53-null HCT116^−/− cells compared with p53-containing cells” value in assay [6] was “much less effective”.
On to `CCC(Sc1nnc2c(n1)[nH]c1cc(F)ccc12)C(=O)N1c2ccccc2Sc2ccccc21` (centres unmarked) [Compound 15, 2-((7-fluoro-5H-[1,2,4]triazino[5,6-b]indol-3-yl)thio)-1-(10H-phenothiazin-10-yl)butan-1-one], for which, in assay [7], the “p53 induction / activation by synthetic analogs” value was “inactive”.
With `CCC(Sc1nnc2c3ccccc3n(CC(=O)O)c2n1)C(=O)N1c2ccccc2Sc2ccccc21` (centres unmarked) [Compound 29, 2-(3-((1-oxo-1-(10H-phenothiazin-10-yl)butan-2-yl)thio)-5H-[1,2,4]triazino[5,6-b]indol-5-yl)acetic acid], the “p53 induction / activation by synthetic analogs” value in assay [7] was “essentially inactive”.
Turning to `C#CCCn1c2ccccc2c2nnc(SC(CC)C(=O)N3c4ccccc4Sc4ccccc43)nc21` (centres unmarked) [Compound 32, 2-((5(but-3-yn-1-yl)-5H-[1,2,4]triazino[5,6-b]indol-3-yl)thiol)-1-(10H-phenothiazin-10-yl)butan-1-one], the “p53 induction / activation by synthetic analogs” value in assay [7] was “significant decrease in activity”.
For the molecule `C=CCCC(=O)n1c2ccccc2c2nnc(SC(CC)C(=O)N3c4ccccc4Sc4ccccc43)nc21` (centres unmarked) [Compound 24, 1-(3-((1-oxo-1-(10H-phenothiazin-10-yl)butan-2-yl)thio)-5H-[1,2, 4]triazino[5,6-b]indol-5-yl)pent-4-en-1-one], the EC90 in assay [1] was 14.5 µM. Further, the EC50 in assay [2] was 5.7 ± 0.3 µM.
Take `CCC(Sc1nnc2c(n1)[nH]c1ccccc12)C(=O)N1c2ccccc2Sc2ccccc21` (centres unmarked) [INZ, 2-((5H-[1,2,4]triazino[5,6-b]indole-3yl)thio)-1-(10H-phenothiazin-10-yl)butan-1-one]: the EC90 is 39.9 µM in assay [1], 30.5 µM in assay [3], 217 µM in assay [4] and 213 µM in assay [5]. Also, the EC50 in assay [3] came out at 2.7 ± 0.3 µM; in assay [4] it was 11.6 ± 3.4 µM; in assay [2], 7.7 ± 1.1 µM; in assay [6], 13.3 ± 2.4 µM. Moreover, the “EC90 fold greater in p53-null cells than in p53-containing cell lines” value in assay [4] (H1299, HCT116^−/− vs H460, HCT116^+/+) is recorded as 5–7 fold.
On to `CCC(Sc1nnc2c(n1)[nH]c1ccccc12)C(=O)N1c2ccccc2Oc2ccccc21` (centres unmarked) [Compound 9, 2-((5H-[1,2,4]triazino[5,6-b]indol-3-yl)thio)-1-(10H-phenoxazin-10-yl)butan-1-one], for which, in assay [7], the “p53 induction / activation by synthetic analogs” value was “inactive”.
`CCC(Sc1nnc2c(n1)[nH]c1cc(OC)ccc12)C(=O)N1c2ccccc2Sc2ccccc21` (centres unmarked) [Compound 18, 2-((7-methoxy-5H-[1,2,4]triazino[5,6-b]indol-3-yl)thio)-1-(10H-phenothiazin-10-yl)butan-1-one]: in assay [7], the “p53 induction / activation by synthetic analogs” value is reported as “marked decrease in p53 activation”.
Turning to `CCC(Sc1nnc2c3ccccc3n(C(=O)CCCCBr)c2n1)C(=O)N1c2ccccc2Sc2ccccc21` (centres unmarked) [Compound 26, 5-bromo-1-(3-((1-oxo-1-(10H-phenothiazin-10-yl)butan-2-yl)thio)-5H-[1,2, 4]triazino[5,6-b]indol-5-yl)pentan-1-one], the EC90 in assay [1] was 38.2 µM. Further, the EC50 in assay [2] worked out at 16 ± 0.9 µM.
Turning to `CCCCC(Sc1nnc2c(n1)[nH]c1ccccc12)C(=O)N1c2ccccc2Sc2ccccc21` (centres unmarked) [Compound 14, 2-((5H-[1,2,4]triazino[5,6-b]indol-3-yl)thio)-1-(10H-phenothiazin-10-yl)hexan-1-one], the “p53 induction / activation by synthetic analogs” value in assay [7] is “lower activity for p53 induction”.
Consider `CCC(Sc1nnc2c(n1)[nH]c1ccccc12)C(=O)N1c2ccccc2Cc2ccccc21` (centres unmarked) [Compound 8, 2-((5H-[1,2,4]triazino[5,6-b]indol-3-yl)thio)-1-(acridin-10(9H)-yl)butan-1-one], for which, in assay [1], the EC90 was 3.5 to 10 µM and the “EC90 fold lower than that for INZ, H460” value is listed as 3–10 fold. Also, the “fold higher potency than INZ in growth inhibition of HCT116^+/+ cells” value in assay [3] (EC50 compared with INZ) is recorded as “more than 2 fold”. In addition, in assay [3], the EC50 turned out to be 1.3 µM and the “EC90 fold lower than that for INZ, HCT116^+/+” value was 3–10 fold. In assay [4], the EC50 was found to be 10.4 µM, the “effect on p53-null H1299 cells compared with p53-containing cells” value was “much less effective” and the “EC50 on H1299 fold higher than on H460 cells” value is 3–15 fold. The “p53 induction / activation by synthetic analogs” value in assay [7] is reported as “drastically induced p53 at 0.5 µM; also recorded: greater potentcy than compound 1; also recorded: more potent in p53 activation than their parental compound INZ”. Besides, the “fold higher potency than INZ in growth inhibition of H460 cells” value in assay [2] (EC50 compared with INZ) is given as “more than 2 fold”. The EC50 in assay [2] was 2.7 µM. Also, in assay [6], the EC50 stood at 5.9 ± 1 µM and the “effect on p53-null HCT116^−/− cells compared with p53-containing cells” value is listed as “much less effective”.
Turning to `CCC(Sc1nnc2c3ccccc3n(CC(=O)c3ccccc3)c2n1)C(=O)N1c2ccccc2Sc2ccccc21` (centres unmarked) [Compound 33, 2-((5-(2-oxo-2-phenylethyl)-5H-[1,2,4]triazino[5,6-b]indol-3-yl)thiol)-1-(10H-phenothiazin-10-yl)butan-1-one], in assay [7], the “p53 induction / activation by synthetic analogs” value is “significant decrease in activity”.
For the molecule `CCC(Sc1nnc2c3ccccc3n(CCO)c2n1)C(=O)N1c2ccccc2Sc2ccccc21` (centres unmarked) [Compound 30, 2-((5(2-hydoxyethyl)-5H-[1,2,4]triazino[5,6-b]indol-5-yl)thiol)-1-(10H-phenothiazin-10-yl)butan-1-one], in assay [1], the EC90 was about 7.7 µM and the “EC90 fold lower than that for INZ, H460” value stood at 5 fold. Besides, in assay [3], the EC90 was 4.6 µM; the EC50 was 0.8 ± 0.5 µM; the “EC90 fold lower than that for INZ, HCT116^+/+” value turned out to be 5 fold. For the same molecule, in assay [4], the EC50 was found to be 16.6 µM, the “effect on p53-null H1299 cells compared with p53-containing cells” value was “much less effective” and the “EC50 on H1299 fold higher than on H460 cells” value is on record as 3–15 fold. For the same molecule, the “p53 induction / activation by synthetic analogs” value in assay [7] was “comparable to compound 8; also recorded: more potent in p53 activation than their parental compound INZ”. Moreover, in assay [2], the EC50 came out at 3.5 ± 0.4 µM. For the same molecule, in assay [6], the EC50 came out at 7.8 ± 3.4 µM and the “effect on p53-null HCT116^−/− cells compared with p53-containing cells” value is recorded as “much less effective”.
With `CCOC(=O)Cn1c2ccccc2c2nnc(SC(CC)C(=O)N3c4ccccc4Sc4ccccc43)nc21` (centres unmarked) [Compound 28, Ethyl 2-(3-((1-oxo-1-(10H-phenothiazin-10-yl)butan-2-yl)thio)-5H-[1,2,4]triazino[5,6-b]indol-5-yl)acetate], the “p53 induction / activation by synthetic analogs” value in assay [7] is “essentially inactive”.
On to `CCOC(=O)CCCC(=O)n1c2ccccc2c2nnc(SC(CC)C(=O)N3c4ccccc4Sc4ccccc43)nc21` (centres unmarked) [Compound 27, Ethyl 5-oxo-5-(3-((1-oxo-1-(10H-phenothiazin-10-yl)butan-2-yl)thio)-5H-[1,2,4]triazino[5,6-b]indol-5-yl)pentanoate], for which, in assay [1], the EC90 is 9 µM. Further, the EC50 in assay [2] stood at 3.4 ± 0.3 µM.
`CCCCCC(=O)C1(SC(CC)C(=O)N2c3ccccc3Sc3ccccc32)N=c2[nH]c3ccccc3c2=NN1` (centres unmarked) [Compound 23, 1-(3-((1-oxo-1-(10H-phenothiazin-10-yl)butan-2-yl)thio)-5H-[1,2,4]triazino[5,6-b]indol-3-yl)hexan-1-one]: the EC90 in assay [1] was 22.6 µM. Also, the EC50 in assay [2] amounted to 6.7 ± 0.7 µM.
